According to ChEMBL document CHEMBL5143734, “Seco-Lupane Triterpene Derivatives Induce Ferroptosis through GPX4/ACSL4 Axis and Target Cyclin D1 to Block the Cell Cycle” (J Med Chem, 2022):
pIC50: −log10 of the molar value.

Tests used:
Assay type in all cases: functional, cell-based
[1] = test system: MCF7; assay: Cytotoxicity against human MCF7 cells assessed as reduction in cell viability by CCK-8 assay
[2] = test system: A549; assay: Cytotoxicity against human A549 cells assessed as reduction in cell viability by CCK-8 assay
[3] = test system: HepG2; assay: Cytotoxicity against human HepG2 cells assessed as reduction in cell viability by CCK-8 assay
[4] = test system: PC-3M; assay: Cytotoxicity against human PC-3M cells assessed as reduction in cell viability by CCK-8 assay
[5] = test system: PANC-1; assay: Cytotoxicity against human PANC-1 cells assessed as reduction in cell viability by CCK-8 assay

| Structure (SMILES) | pIC50 [1] | pIC50 [2] | pIC50 [3] | pIC50 [4] | pIC50 [5] |
| --- | --- | --- | --- | --- | --- |
| C=C(C)[C@@H]1CC[C@]2(C(=O)OCCCCCCn3cnc(C)c3)CC[C@]3(C)[C@H](C[C@H]4OC(=O)C[C@@H](O)[C@]5(C)[C@@H]4[C@@]3(C)CC[C@H]5C(=C)C)[C@@H]12 | 4.35 | 4.85 | 5.44 | 4.91 | 4.88 |
| C=C(C)[C@@H]1CC[C@]2(C(=O)OCCCn3ccnc3)CC[C@]3(C)[C@H](C[C@@H](O)[C@@H]4[C@@]5(C)C(CC(=O)OC)OC(C)(C)C5CC[C@]43C)[C@@H]12 (stereo not given in full) | 4.14 | 4.46 | 4.56 | 4.45 | 4.25 |
| C=C(C)[C@@H]1CC[C@]2(C(=O)OCCCCn3cc(CCN)c4ccccc43)CC[C@]3(C)[C@H](C[C@@H](O)[C@@H]4[C@@]5(C)C(CC(=O)OC)OC(C)(C)C5CC[C@]43C)[C@@H]12 (stereo not given in full) | 5.20 | 5.15 | 5.77 | 5.25 | 5.19 |
| C=C(C)[C@@H]1CC[C@]2(C(=O)OCCCn3ccnc3C)CC[C@]3(C)[C@H](C[C@H]4OC(=O)C[C@@H](O)[C@]5(C)[C@@H]4[C@@]3(C)CC[C@H]5C(=C)C)[C@@H]12 | 4.33 | 4.67 | 4.84 | 4.80 | 4.61 |
| C=C(C)[C@@H]1CC[C@]2(C(=O)OCCCCn3cncn3)CC[C@]3(C)[C@H](C[C@H]4OC(=O)C[C@@H](O)[C@]5(C)[C@@H]4[C@@]3(C)CC[C@H]5C(=C)C)[C@@H]12 | 4.34 | 4.50 | 3.96 | 4.74 | 4.22 |
| C=C(C)[C@@H]1CC[C@]2(C(=O)OCCCCCCn3ccnc3)CC[C@]3(C)[C@H](C[C@@H](O)[C@@H]4[C@@]5(C)C(CC(=O)OC)OC(C)(C)C5CC[C@]43C)[C@@H]12 (stereo not given in full) | 4.34 | 4.58 | 4.80 | 4.70 | 4.59 |
| C=C(C)[C@@H]1CC[C@]2(C(=O)OCCCn3cnc(C)c3)CC[C@]3(C)[C@H](C[C@H]4OC(=O)C[C@@H](O)[C@]5(C)[C@@H]4[C@@]3(C)CC[C@H]5C(=C)C)[C@@H]12 | 4.31 | 4.40 | 4.45 | 4.73 | 4.08 |
| C=C(C)[C@@H]1CC[C@]2(C(=O)OCCCCCCCCCCn3ccnc3CC)CC[C@]3(C)[C@H](C[C@@H](O)[C@@H]4[C@@]5(C)C(CC(=O)OC)OC(C)(C)C5CC[C@]43C)[C@@H]12 (stereo not given in full) | 4.73 | 4.73 | 5.16 | 4.94 | 4.97 |
| C=C(C)[C@@H]1CC[C@]2(C(=O)OCCCCn3ccnc3C)CC[C@]3(C)[C@H](C[C@H]4OC(=O)C[C@@H](O)[C@]5(C)[C@@H]4[C@@]3(C)CC[C@H]5C(=C)C)[C@@H]12 | 4.11 | 4.32 | 4.56 | 4.52 | 4.25 |
| C=C(C)[C@@H]1CC[C@]2(C(=O)O)CC[C@]3(C)[C@H](C[C@H]4OC(=O)C[C@@H](O)[C@]5(C)[C@@H]4[C@@]3(C)CC[C@H]5C(=C)C)[C@@H]12 | < 3.70 | 3.84 | < 3.70 | 3.87 | < 3.70 |
| C=C(C)[C@@H]1CC[C@]2(C(=O)OCCCCCCCCCCn3cnc(C)c3)CC[C@]3(C)[C@H](C[C@@H](O)[C@@H]4[C@@]5(C)C(CC(=O)OC)OC(C)(C)C5CC[C@]43C)[C@@H]12 (stereo not given in full) | 4.47 | 4.65 | 5.17 | 4.90 | 4.91 |
| C=C(C)[C@@H]1CC[C@]2(C(=O)OCCCCCn3ccnc3C)CC[C@]3(C)[C@H](C[C@H]4OC(=O)C[C@@H](O)[C@]5(C)[C@@H]4[C@@]3(C)CC[C@H]5C(=C)C)[C@@H]12 | 4.34 | 4.80 | 5.05 | 4.91 | 4.85 |
